35 compounds from US8735584B2 (Merck Patent GmbH, priority 2008, dated 2014) can be followed below.

In this test the target is T1, GST-Aurora A (Homo sapiens, UniProt O14965).
T1 construct: N-terminal GST fusion with full length Aurora A (1-403 amino acids); purchased Carna Biosciences 05-101
T1 sequence (O14965 1-403): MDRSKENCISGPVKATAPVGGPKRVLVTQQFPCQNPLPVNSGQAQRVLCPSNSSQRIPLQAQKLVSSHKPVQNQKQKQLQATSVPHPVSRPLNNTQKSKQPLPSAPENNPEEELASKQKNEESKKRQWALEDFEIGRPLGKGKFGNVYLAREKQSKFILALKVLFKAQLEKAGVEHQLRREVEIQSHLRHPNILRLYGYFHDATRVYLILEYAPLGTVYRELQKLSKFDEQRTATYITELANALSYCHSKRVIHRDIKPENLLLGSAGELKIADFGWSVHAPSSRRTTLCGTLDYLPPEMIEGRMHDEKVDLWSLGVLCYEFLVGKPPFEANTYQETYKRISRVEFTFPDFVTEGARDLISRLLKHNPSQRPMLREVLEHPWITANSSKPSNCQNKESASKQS
The test is described as follows: Aurora A IC50, Caliper LC3000 mobility shift assay. In kind it is biochemical. The following applies: LC3000 method; 15 uM ATP (the KM value); read-out: Aurora Kinase A Activity (IC50). In short, it runs like this: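 GST-tagged full-length Aurora A (0.067 ng/ul) with 15 uM ATP (KM) and 1 uM FITC-LRRASLG peptide in 100 mM HEPES pH 7.5, 1 mM MgCl2, 1 mM DTT, Brij-35; 90 min at 25 C, EDTA stop. Off-chip mobility shift read of substrate-to-product conversion; IC50 from sigmoidal dose-response.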
The IC50 is the concentration that inhibits the measured activity by half. Regarding `O=C(Nc1ccc(Nc2ccnc3[nH]c(=O)c4ccc(Cl)cc4c23)cc1)c1ccccc1` [Compound 293, N-(4-(9-Chloro-6-oxo-5,6-dihydrobenzo[c][1,8]naphthyridin-1-ylamino)phenyl)benzamide], the IC50 is less than 11 nM.

As to `O=C(Cn1cc(Nc2ccnc3[nH]c(=O)c4ccc(F)cc4c23)cn1)Nc1ccc(F)cc1` [Compound 421], the IC50 was in the range of 11 to 100 nM.

For `Cc1cccc(CNc2ccc3c(=O)[nH]c4ncccc4c3c2)c1` [Example 47, 9-(3-Methyl-benzylamino)-5H-benzo[c][1,8]naphthyridin-6-one], the IC50 was greater than 100 nM.

For `COc1cc2c(=O)[nH]c3nccc(Nc4ccc(NC(=O)c5ccccc5)cc4)c3c2cc1OC` [Compound 409, N-[4-(8,9-Dimethoxy-6-oxo-5,6-dihydro-benzo[c][1,8]naphthyridin-1-ylamino)-phenyl]-benzamide], the IC50 is less than 11 nM.

In the case of `O=C(Nc1ccc(Nc2ccnc3[nH]c(=O)c4ccccc4c23)cc1)c1ccc(F)cc1F` [Compound 391, 2,4-Difluoro-N-[4-(6-oxo-5,6-dihydro-benzo[c][1,8]naphthyridin-1-ylamino)-phenyl]-benzamide], the IC50 is less than 11 nM.

In the case of `O=C(Nc1ccc(Nc2ccnc3[nH]c(=O)c4ccc(C(F)(F)F)cc4c23)cc1)c1ccc(F)cc1C(F)(F)F` [Compound 404, 4-Fluoro-N-[4-(9-trifluoromethyl-6-oxo-5,6-dihydro-benzo[c][1,8]naphthyridin-1-ylamino)-phenyl]-2-trifluoromethyl-benzamide], the 50% inhibitory concentration (IC50) is less than 11 nM.

Take `CCOC(=O)CCCNc1ccc2c(=O)[nH]c3ncccc3c2c1` [Compound 460, Ethyl 4-(6-oxo-5,6-dihydrobenzo[c][1,8]naphthyridin-9-ylamino)butanoate]: the IC50 was greater than 100 nM.

For `COc1cccc(CNc2ccc3c(=O)[nH]c4ncccc4c3c2)c1` [Example 42, 9-(3-Methoxy-benzylamino)-5H-benzo[c][1,8]naphthyridin-6-one], the IC50 was greater than 100 nM.

Consider `O=c1[nH]c2ncccc2c2cc(Nc3ccccc3F)ccc12` [Example 32, 9-(2-Fluoro-phenylamino)-5H-benzo[c][1,8]naphthyridin-6-one], for which the IC50 was greater than 100 nM.

On to `O=c1[nH]c2nccc(Nc3ccc(NS(=O)(=O)c4ccccc4)cc3)c2c2ccccc12` [Compound 341, N-(4-(6-Oxo-5,6-dihydrobenzo[c][1,8]naphthyridin-1-ylamino)phenyl)benzenesulfonamide], for which the IC50 was greater than 100 nM.

For `O=C(Nc1ccc(Nc2ccnc3[nH]c(=O)c4cc(F)ccc4c23)cc1)c1ccc(F)cc1C(F)(F)F` [Compound 414, 4-Fluoro-N-[4-(8-fluoro-6-oxo-5,6-dihydro-benzo[c][1,8]naphthyridin-1-ylamino)-phenyl]-2-trifluoromethyl-benzamide], the half-maximal inhibitory concentration (IC50) is less than 11 nM.

Consider `NCc1ccc2c(=O)[nH]c3nccc(Nc4ccc(NC(=O)c5ccccc5)cc4)c3c2c1` [Compound 280, N-(4-(9-(Aminomethyl)-6-oxo-5,6-dihydrobenzo[c][1,8]naphthyridin-1-ylamino)phenyl)benzamide], for which the half-maximal inhibitory concentration (IC50) was less than 11 nM.

On to `CN(C)CCNC(=O)c1ccc2c(=O)[nH]c3nccc(Cl)c3c2c1` [Compound 296, 1-Chloro-N-(2-(dimethylamino)ethyl)-6-oxo-5,6-dihydrobenzo[c][1,8]naphthyridine-9-carboxamide], for which the half-maximal inhibitory concentration (IC50) was greater than 100 nM.

`O=c1[nH]c2ncccc2c2cc(NCc3ccccc3F)ccc12` [Example 44, 9-(2-Fluoro-benzylamino)-5H-benzo[c][1,8]naphthyridin-6-one]: the IC50 is 11 to 100 nM.

In the case of `O=c1[nH]c2nccc(Oc3ccc(NS(=O)(=O)c4cccc(Cl)c4Cl)cc3)c2c2ccccc12` [Example 173, 2,3-Dichloro-N-[4-(6-oxo-5,6-dihydro-benzo[c][1,8]naphthyridin-1-yloxy)-phenyl]-benzenesulfonamide], the IC50 was 11 to 100 nM.

As for `CN(C)CCCNC(=O)c1cccc2c1c(=O)[nH]c1nccc(Nc3ccc(NC(=O)c4ccc(F)cc4C(F)(F)F)cc3)c12` [Compound 441], the IC50 was less than 11 nM.

Take `O=C(Nc1ccc(Nc2ccnc3[nH]c(=O)c4ccccc4c23)cc1F)c1ccccc1` [Compound 320, N-(2-Fluoro-4-(6-oxo-5,6-dihydrobenzo[c][1,8]naphthyridin-1-ylamino)phenyl) benzamide]: the IC50 lay within 11 to 100 nM.

Take `Cn1ccc(C(=O)Nc2ccc(Nc3ccnc4[nH]c(=O)c5ccccc5c34)cc2)n1` [Compound 345, 1-methyl-N-(4-(6-oxo-5,6-dihydrobenzo[c][1,8]naphthyridin-1-ylamino)phenyl)-1H-pyrazole-3-carboxamide]: the concentration for half-maximal inhibition (IC50) fell in the range of 11 to 100 nM.

Regarding `O=C(Nc1ccc(CNc2ccnc3[nH]c(=O)c4ccccc4c23)cc1)c1cc(F)cc(F)c1` [Compound 326, 3,5-Difluoro-N-(4-((6-oxo-5,6-dihydrobenzo[c][1,8]naphthyridin-1-ylamino)methyl)phenyl)benzamide], the half-inhibitory concentration (IC50) is 11 to 100 nM.

Take `O=C(Nc1ccc(Nc2ccnc3[nH]c(=O)c4ccccc4c23)cc1)c1ccccc1OCCCN1CCOCC1` [Compound 357, 2-(3-morpholinopropoxy)-N-(4-(6-oxo-5,6-dihydrobenzo[c][1,8]naphthyridin-1-ylamino)phenyl)benzamide]: the half-maximal inhibitory concentration (IC50) was greater than 100 nM.

With `O=C(Nc1ccc(Nc2ccnc3[nH]c(=O)c4ccccc4c23)cc1)c1cccnc1C(F)(F)F` [Compound 498, N-(4-(6-Oxo-5,6-dihydrobenzo[c][1,8]naphthyridin-1-ylamino)phenyl)-2-(trifluoromethyl)nicotinamide], the IC50 was less than 11 nM.

As for `O=c1[nH]c2ncccc2c2cc(NCc3cc(C(F)(F)F)ccc3C(F)(F)F)ccc12` [Compound 468, 9-(2,5-Bis(trifluoromethyl)benzylamino)benzo[c][1,8]naphthyridin-6(5H)-one], the IC50 was greater than 100 nM.

Regarding `COc1cc2c(=O)[nH]c3nccc(Nc4ccccc4F)c3c2cc1OC` [Example 216, 1-(2-Fluoro-phenylamino)-8,9-dimethoxy-5H-benzo[c][1,8]naphthyridin-6-one], the IC50 was 11 to 100 nM.

On to `O=C(Nc1ccc(Nc2ccnc3[nH]c(=O)c4ccccc4c23)cc1)C1(c2ccccc2)CC1` [Compound 502, N-(4-(6-Oxo-5,6-dihydrobenzo[c][1,8]naphthyridin-1-ylamino)phenyl)-1-phenylcyclopropanecarboxamide], for which the half-inhibitory concentration (IC50) is 11 to 100 nM.

With `CN1CCN(c2ccc3c(c2)c(=O)[nH]c2nccc(Nc4ccc(NC(=O)c5ccccc5)cc4)c23)CC1` [Compound 276, N-(4-(8-(4-Methylpiperazin-1-yl)-6-oxo-5,6-dihydrobenzo[c][1,8]naphthyridin-1-ylamino)phenyl)benzamide], the IC50 lay within 11 to 100 nM.

For the compound `O=C(Nc1ccc(Nc2ccnc3[nH]c(=O)c4ccccc4c23)cc1)C(CC1CCCO1)C(F)(F)F` (centres unmarked) [Compound 495, 3,3,3-Trifluoro-N-(4-(6-oxo-5,6-dihydrobenzo[c][1,8]naphthyridin-1-ylamino)phenyl)-2-((tetrahydrofuran-2-yl)methyl)propanamide], the half-inhibitory concentration (IC50) is 11 to 100 nM.

Regarding `O=C(Nc1ccc(Nc2ccnc3[nH]c(=O)c4ccccc4c23)cc1)c1ccc(C(F)(F)F)cc1F` [Compound 397, 2-Fluoro-N-[4-(6-oxo-5,6-dihydro-benzo[c][1,8]naphthyridin-1-ylamino)-phenyl]-4-trifluoromethyl-benzamide], the half-inhibitory concentration (IC50) was less than 11 nM.

With `O=C(NC1CCC(Nc2ccnc3[nH]c(=O)c4ccccc4c23)CC1)c1ccc(F)c(F)c1` (centres unmarked) [Compound 402, 3,4-Difluoro-N-[4-(6-oxo-5,6-dihydro-benzo[c][1,8]naphthyridin-1-ylamino)-cyclohexy]-benzamide], the half-maximal inhibitory concentration (IC50) lay in the range of 11 to 100 nM.

Turning to `O=c1[nH]c2ncccc2c2cc(NS(=O)(=O)c3ccc(Br)cc3)ccc12` [Example 72, 4-Bromo-N-(6-oxo-5,6-dihydro-benzo[c][1,8]naphthyridin-9-yl)-benzenesulfonamide], the IC50 was greater than 100 nM.

As to `O=C(Nc1ccc(Nc2ccnc3[nH]c(=O)c4ccccc4c23)cc1)c1cccnc1` [Compound 344], the concentration for half-maximal inhibition (IC50) was 11 to 100 nM.

In the case of `O=C(Cn1cc(Nc2ccnc3[nH]c(=O)c4ccccc4c23)cn1)Nc1ccc(C(F)(F)F)cc1` [Compound 431], the IC50 was greater than 100 nM.

In the case of `O=C(Nc1ccccc1)Nc1ccc(Nc2ccnc3[nH]c(=O)c4ccccc4c23)cc1` [Compound 343, 1-(4-(6-Oxo-5,6-dihydrobenzo[c][1,8]naphthyridin-1-ylamino)phenyl)-3-phenylurea], the IC50 was less than 11 nM.

As to `O=c1[nH]c2ncccc2c2cc(NCc3cccc([N+](=O)[O-])c3)ccc12` [Compound 465, 9-(3-Nitrobenzylamino)benzo[c][1,8]naphthyridin-6(5H)-one], the IC50 was greater than 100 nM.

Take `Cn1ccnc1Sc1ccc(Nc2ccnc3[nH]c(=O)c4ccccc4c23)cc1Cl` [Example 156, 1-[3-Chloro-4-(1-methyl-1H-imidazol-2-ylsulfanyl)-phenylamino]-5H-benzo[c][1,8]naphthyridin-6-one]: the IC50 is greater than 100 nM.

Consider `CN(C)CCNC(=O)c1cccc2c1c(=O)[nH]c1nccc(Nc3ccc(NC(=O)c4ccccc4)cc3)c12` [Compound 435, 1-[4-Benzoylamino-phenylamino)-6-oxo-5,6-dihydro-benzo[c][1,8]naphthyridin-7-carboxylic acid 2-dimethylamino-ethyl amide], for which the half-inhibitory concentration (IC50) was less than 11 nM.
